Experimental data from the METLIN SMRT retention time set (Domingo-Almenara et al. 2019).

Test: gradient 5% acetonitrile 3 min, to 50% in 2 min, to 85% in 15 min, held 3 min, 100 µL/min
Details: column: Zorbax Extend-C18 2.1 x 50 mm; eluents: water / acetonitrile, 0.1% formic acid
Procedure, shortened: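 Over 3 months, pure standards in mixtures of ~100 molecules were run by HPLC coupled to a quadrupole time-of-flight mass spectrometer in positive and negative ionization mode. The column was a Zorbax Extend-C18 (2.1 × 50 mm, 1.8 μm) at 100 μL/min, eluted with water and acetonitrile each holding 0.1% formic acid, with 40 μL dead and 900 μL dwell volumes. Retention time was determined from adduct peaks chosen by software and checked manually.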

CC(C)c1noc(-c2ccnc(-n3cnc(C(=O)N4CCCC4)c3)c2)n1
RP-LC retention time: 616 s

Cc1cc(C)c(S(=O)(=O)N2CCCC(C(=O)NC3CC3)C2)c(C)c1 (stereo not drawn)
RP-LC retention time: 842 s

COc1ccc(CNC(=O)c2ccc3c(c2)N(C)C(=O)c2ccccc2O3)cc1
RP-LC retention time: 863 s

CCC1=NS(=O)(=O)c2cccnc2N1c1ccc2c(c1)OCCO2
RP-LC retention time: 800 s

CC(C)c1noc(C2Cc3ccccc3N2C(=O)NC2CCCC2)n1 (stereo not drawn)
RP-LC retention time: 650 s

O=C(c1cccc(OCC2CCCN(C(=O)C3CCCO3)C2)c1)N1CCCC1 (stereo not drawn)
RP-LC retention time: 718 s

Cc1ccc(CNC(=O)N2CCC(n3c(-c4ccco4)nc4cccnc43)C2)cc1 (stereo not drawn)
RP-LC retention time: 762 s

COc1ccc(OC)c(S(=O)(=O)N2CCCC3(CC2)CNC(=O)O3)c1 (stereo not drawn)
RP-LC retention time: 685 s

COc1ccccc1NS(=O)(=O)c1ccc2c(c1)CCCC(=O)N2
RP-LC retention time: 716 s

O=C(Nc1ccccc1Cl)C1CCCN(c2ncnc3c2nc2n3CCCCC2)C1 (stereo not drawn)
RP-LC retention time: 851 s

CCc1ccc(NC(=O)Cn2nc(N3CCCC3)c3ccccc3c2=O)cc1
RP-LC retention time: 1030 s

Cc1ccc(NS(=O)(=O)c2cc(-c3nc(C(C)(C)C)cs3)cs2)cc1
RP-LC retention time: 1210 s

O=C(Nc1cccc(C(F)(F)F)c1)N1CCCC(Cn2cnc3cccnc32)C1 (stereo not drawn)
RP-LC retention time: 751 s

CCC(=O)NCc1nc2c(n1C)CN(S(=O)(=O)c1ccc(F)c(C)c1)CC2
RP-LC retention time: 575 s

CC(C)n1cnc(S(=O)(=O)N2CCCC(C(=O)NCc3ccc(Cl)cc3)C2)c1 (stereo not drawn)
RP-LC retention time: 799 s

Cc1nc(C(=O)NCc2ccc(F)cc2Cl)c(C)o1
RP-LC retention time: 874 s

COc1ccc(C2(C(=O)N3CC(n4c(C)cnc4-c4ccccc4)C3)CC2)cc1
RP-LC retention time: 661 s

COc1ccc(CNC(=O)N2CCC(c3noc(-c4cnccn4)n3)C2)cc1 (stereo not drawn)
RP-LC retention time: 652 s

Cc1ccc(-c2cc(C(=O)O)c3ccccc3n2)c(C)c1
RP-LC retention time: 821 s

O=c1ccn(-c2ccc(F)c(F)c2)nc1-c1nc(-c2ccccc2)no1
RP-LC retention time: 878 s

CCn1cc(-c2nc(C(=O)Nc3cc(F)ccc3F)cs2)c2cccnc21
RP-LC retention time: 1220 s

CCc1cc(C(=O)Nc2ccccc2C)nc2ccnn12
RP-LC retention time: 1010 s

Cc1nc2cc(-c3noc(-c4ncoc4-c4ccccc4)n3)ccc2o1
RP-LC retention time: 1020 s

CCCOc1nc2ccccc2nc1N1CCCC(C(=O)NC2CCCC2)C1 (stereo not drawn)
RP-LC retention time: 1180 s

Cc1cc(OCC(=O)N(C)c2ccccc2)nc(N2CCN(c3ccccc3)CC2)n1
RP-LC retention time: 859 s

COc1ccc(-c2noc(-c3nc(C)no3)n2)cc1OC
RP-LC retention time: 888 s

CC(C)(CO)NC(=O)Cc1ccc(NC(=O)CSc2ccc(F)cc2)cc1
RP-LC retention time: 681 s

COc1cccc(N2CC(C(=O)Nc3nnc(SCc4ccccc4)s3)CC2=O)c1 (stereo not drawn)
RP-LC retention time: 820 s

CCS(=O)(=O)Nc1ccc(OCc2nnc(-c3ccccc3)o2)cc1
RP-LC retention time: 804 s

COCCN1C(=O)c2ccccc2C(C(=O)NCCN2CCOCC2)C1c1ccc(F)cc1 (stereo not drawn)
RP-LC retention time: 628 s

Fc1ccc(Cc2nc(-c3ccc4nncn4c3)no2)cc1
RP-LC retention time: 770 s

COc1cccc2cc(C(=O)NCCn3nc(C)cc3C)oc12
RP-LC retention time: 674 s

Cn1cc(CCN2CCN(S(=O)(=O)c3ccc(Cl)cc3)CC2)c2cccnc21
RP-LC retention time: 645 s

O=C(c1cn(-c2cc(N3CCCCC3)ncn2)cn1)N1CCSCC1
RP-LC retention time: 789 s

O=C(Cc1ccccc1Br)Nc1cc(-c2cccs2)no1
RP-LC retention time: 973 s

Cc1cc2n(n1)CCCN2C(=O)CCC(=O)N1CCC(Cc2ccccc2)CC1
RP-LC retention time: 818 s

CNC(=O)c1cc2cccc3c2n1CC(C)S3 (stereo not drawn)
RP-LC retention time: 853 s

Cn1nc(C(=O)N2CCC(C(=O)N3CCCC3)CC2)c2c1CCN(C(=O)Cc1ccc(F)cc1)C2
RP-LC retention time: 679 s
